In article PMC8305652, “Copper(II) Complexes Containing Natural Flavonoid Pomiferin Show Considerable In Vitro Cytotoxicity and Anti-inflammatory Effects” (International Journal of Molecular Sciences, 2021):

Tests used:
[1] = system: breast adenocarcinoma (MCF-7); test: in vitro cytotoxicity, MTT assay; assay type: cell-based, human; details: at least three independent experiments
Description: (§1) The testing was performed on the following human cancer cell lines: breast adenocarcinoma (MCF-7), osteosarcoma (HOS), lung adenocarcinoma (A549), prostate adenocarcinoma (PC-3), ovarian carcinoma (A2780), cisplatin-resistant ovarian carcinoma (A2780R) and colorectal adenocarcinoma (Caco-2) obtained from ATCC collection of cell lines and cultivated according to producer’s instructions.

[2] = system: cisplatin-resistant ovarian carcinoma (A2780R); test: in vitro cytotoxicity, MTT assay; assay type: cell-based, human; details: mean ± SD, at least three independent experiments
Description: as §1

[3] = system: lung adenocarcinoma (A549); test: in vitro cytotoxicity, MTT assay; assay type: cell-based, human; details: at least three independent experiments
Description: as §1

[4] = system: ovarian carcinoma (A2780); test: in vitro cytotoxicity, MTT assay; assay type: cell-based, human; details: at least three independent experiments
Description: as §1

[5] = system: prostate adenocarcinoma (PC-3); test: in vitro cytotoxicity, MTT assay; assay type: cell-based, human; details: mean ± SD, at least three independent experiments
Description: as §1

[6] = system: osteosarcoma (HOS); test: in vitro cytotoxicity, MTT assay; assay type: cell-based, human; details: mean ± SD, at least three independent experiments
[7] = system: primary culture of human hepatocytes (Hep); test: toxicity against primary culture of human hepatocytes; assay type: cell-based; details: tested range 0.1–100 μM
[8] = system: IκB and MAPKs p38, ERK1/2, JNK in THP-1 macrophages; test: IκB and MAPK signalling pathways, Western blot; assay type: cell-based, human; details: 200 nM, 1 h pre-treatment, 30 min after LPS
Description: Macrophages derived from THP-1 cells were used to evaluate the influence of tested complexes on the signalling pathway leading to activation of transcription factors NF-κB and AP-1. To differentiate THP-1 monocytes into macrophages, the cells were stimulated with phorbol myristate acetate (PMA), as described above. The level of inhibitor of NF-κB (IĸB) and phosphorylation (activation) of mitogen-activated protein kinases (MAPKs) p38, ERK1/2, and JNK was determined in a way similar to that described previously. Above mentioned proteins were detected by the following primary antibodies: anti-IĸB-α at the dilution 1:500 (Cell Signalling, Danvers, MA, USA; products No. 4814), anti-phospho-SAPK/JNK at the dilution 1:500 (Cell Signalling; products No. 4668), anti-p44/42 MAPK (ERK1/2) at the dilution 1:1000 (Cell Signalling; products No. 4695), anti-phospho-p44/42 MAPK (ERK1/2) at the dilution 1:1000 (Cell Signalling; products No. 4370), anti-p38 MAPK at the dilution 1:1000 (Cell Signalling; products No. 9212), anti-phospho-p38 MAPK antibodies at the dilution 1:1000 (Cell Signalling; products No. 4511), anti-SAPK/JNK at a dilution of 1:250 (Sigma-Aldrich, product No. SAB4200176), and anti-β-actin at a dilution of 1:5000 (Abcam, Cambridge, UK; product No. 8226). […] The amount of bound secondary antibody was determined using ECL reagent (Bio-Rad, Hercules, CA, USA). […]

[9] = system: caspases 3/7 in A2780 cells; test: activation of caspases 3/7, flow cytometry; assay type: cell-based, human; details: A2780, 15 µM, 24 h
Description: Both methods were performed according to the manufacturers’ protocols with 1 modification in the caspase induction assay, which was the use of the CellEvent^TM Caspase-3/7 Green Detection Reagent only for detection of Caspase-3/7 activation. […] After 24 h, the cells were washed once with PBS (0.1 M, pH 7.4), detached with trypsin (0.25% in ethylenediaminetetraacetic acid (EDTA), Sigma-Aldrich), resuspended in 500 µL of the culture medium and divided into 2 separate tubes, the first for apoptosis assay and the second one for caspase activation analysis. After staining with appropriate dyes, samples were analyzed on a BD FACSVerse flow cytometer (Becton Dickinson, Franklin Lakes, NJ, USA) in 3 separate experiments, while at least 10^4 events were recorded for each sample prepared in duplicate.

[10] = system: NF-κB in differentiated THP-1 macrophages; test: immunocytochemical analysis of NF-κB nuclear translocation; assay type: cell-based, human; details: 200 nM, 1 h pre-treatment, 1 h LPS (1 µg/mL), fluorescence microscopy
Description: To differentiate the THP-1 monocytes to macrophages, phorbol myristate acetate (PMA) was used at the final concentration of 50 ng/mL. The cells were split into 8-well cell culture glass slides (SPL, Gyeonggi-do, South Korea) at a concentration of 3 × 10^5 cells/300 µL/well. Monocytes were differentiated by PMA treatment for 24 h and then the medium was changed. Macrophages were washed with PBS, transferred into a serum-free medium and incubated for 2 h. After 1 h pre-treatment with 5 (200 nM), prednisone (200 nM) or 0.1% DMF (v/v) solution used as a control, NF-κB nuclear translocation was triggered by the addition of LPS (1 µg/mL). The macrophages were washed with PBS and fixed with 4% formaldehyde 1 h later. Permeabilization was performed using 0.1% v/v Triton X-100 (Merck). After blocking with 3% bovine serum albumin (BSA; Merck, Darmstadt, Germany) dissolved in PBS, the primary antibody anti-NF-κB p65 (Abcam, Cambridge, UK, product No. ab16502) was added at a concentration of 2.5 µg/mL and incubated at 4 °C overnight. Then a secondary anti-rabbit antibody labelled by Alexa Fluor 488® (Cell Signalling, Danvers, MA, USA) product No. 4412, dilution 1:1500) was applied in dark at 4 °C for 1 h. […] The NF-κB migration activity was evaluated by fluorescent microscopy after the nail polish cured using the fluorescence microscope IX73 (Olympus, Tokyo, Japan).

CC(C)=CCc1c2c(c3occ(-c4ccc(O)c(O)c4)c(=O)c3c1[O-])C=CC(C)(C)O2.Cc1ccnc(-c2cc(C)ccn2)c1.O.O.O=[N+]([O-])[O-].[Cu+2] [Complex 2, (3-(3,4-dihydroxyphenyl)-8,8-dimethyl-6-(3-methylbut-2-en-1-yl)-4H,8H-benzo[1,2-b:3,4-b′]dipyran-4-one-5-olato-κ^2O4:O5)(4,4′-dimethyl-2,2′-bipyridine–κ^2N:N)copper(II) nitrate dihydrate]
IC50 ([1]; mean ± SD): 29.6 ± 2 µM | IC50 [2]: 5.3 ± 1.1 µM | IC50 ([3]; mean ± SD): 20.9 ± 0.9 µM | IC50 ([4]; mean ± SD): 5.4 ± 2.4 µM | IC50 [5]: > 50 µM | IC50 [6]: 21.1 ± 1.6 µM | IC50 [7]: > 100 µM | IκB and MAPK intracellular signalization [8]: did not affect the intracellular signalization

CC(C)=CCc1c2c(c3occ(-c4ccc(O)c(O)c4)c(=O)c3c1[O-])C=CC(C)(C)O2.CO.O=[N+]([O-])[O-].[Cu+2].c1ccc(-c2ccnc3c2ccc2c(-c4ccccc4)ccnc23)cc1 [Complex 4, (3-(3,4-dihydroxyphenyl)-8,8-dimethyl-6-(3-methylbut-2-en-1-yl)-4H,8H-benzo[1,2-b:3,4-b′]dipyran-4-one-5-olato-κ^2O4:O5)(4,7-diphenyl-1,10-phenanthroline–κ^2N:N)copper(II) nitrate methanol solvate]
IC50 ([1]; mean ± SD): 16 ± 1.1 µM | IC50 [2]: 6.6 ± 2.3 µM | IC50 ([3]; mean ± SD): 8.7 ± 0.8 µM | IC50 ([4]; mean ± SD): 12.8 ± 3.1 µM | IC50 [5]: 13 ± 1.1 µM | IC50 [7]: > 100 µM | activation of executioner caspases 3/7 [9]: significantly increase the antiproliferative effects over the free pomiferin and reference drug cisplatin | NF-κB nuclear translocation [10]: blocked the nuclear translocation

CC(C)=CCc1c2c(c3occ(-c4ccc(O)c(O)c4)c(=O)c3c1O)C=CC(C)(C)O2 [pomiferin, 3-(3,4-dihydroxyphenyl)-5-hydroxy-8,8-dimethyl-6-(3-methylbut-2-ene-1-yl)-4H,8H-benzo[1,2-b:3,4-b′]dipyran-4-one]
IC50 ([1]; Homo sapiens, MCF7, mean ± SD): 22 ± 0.1 µM | IC50 ([2]; Homo sapiens): 4.3 ± 1.3 µM | IC50 ([3]; Homo sapiens, A549, mean ± SD): 21.2 ± 1.4 µM | IC50 ([4]; Homo sapiens, A2780, mean ± SD): 8.4 ± 2 µM | IC50 ([5]; Homo sapiens): 18.5 ± 0.7 µM | IC50 ([6]; Homo sapiens): 20.7 ± 0.5 µM | IC50 ([7]; Hepatocyte): > 50 µM

(3-(3,4-dihydroxyphenyl)-8,8-dimethyl-6-(3-methylbut-2-en-1-yl)-4H,8H-benzo[1,2-b:3,4-b′]dipyran-4-one-5-olato-κ^2O4:O5)(dipyrido[3,2-a:2′,3′-c]phenazine–κ^2N4:N5)copper(II) nitrate methanol solvate [Complex 5]
IC50 ([1]; mean ± SD): 3 ± 0.5 µM | IC50 [2]: 2.2 ± 0.5 µM | IC50 ([3]; mean ± SD): 3.1 ± 0.2 µM | IC50 ([4]; mean ± SD): 2.5 ± 0.9 µM | IC50 [5]: 3.3 ± 0.1 µM | IC50 [6]: 2.4 ± 0.9 µM | IC50 [7]: > 100 µM | NF-κB nuclear translocation [10]: the NF-κB levels in the nucleus decreased | IκB and MAPK intracellular signalization [8]: did not affect the intracellular signalization
